Results: ChEMBL document CHEMBL1121741, “Acidic epinephrine analogues derived from 1H, 3H-2,1,3-benzothiadiazole 2,2-dioxide and from trifluoromethanesulfonanilide. A new synthesis of 1H,3H-2,1,3-benzothiadiazole 2,2-dioxide” (J Med Chem, 1981)

Assays:
[1] = Acidity determined spectrometrically; type: ADME
[2] = Acidity of compound was determined; type: ADME
[3] = Partition coefficient (logP); type: physicochemical; details: octanol/water

Row | SMILES | pKa [1] | pKa [2] | logP [3]
1 | NCC(O)c1ccc2c(c1)NS(=O)(=O)N2 (stereo unspecified) | 4.68 |  | 
2 | CNCC(O)c1ccc2c(c1)NS(=O)(=O)N2 (stereo unspecified) | 4.67 |  | 
3 | O=S(=O)(CF)Nc1ccccc1 |  | 7.53 | 1.35
4 | CS(=O)(=O)Nc1ccccc1 |  | 8.85 | 0.95
5 | O=S1(=O)Nc2ccccc2N1 |  | 5.26 | 1.12
6 | CC(C)(C)NCC(O)c1ccc2c(c1)NS(=O)(=O)N2 (stereo unspecified) | 4.7 |  | 
7 | Oc1cccc(O)c1 [RESORCINOL] |  | 9.5 | 0.85

Second part, the compound after the results:

Row | pKa [1] | pKa [2] | logP [3] | SMILES
8 | 4.68 |  |  | CC(C)NCC(O)c1ccc2c(c1)NS(=O)(=O)N2 (stereo unspecified)
9 | 3.65 |  |  | CC(C)NCC(O)c1ccc(NS(=O)(=O)C(F)(F)F)cc1 (stereo unspecified)
10 | 3.63 |  |  | CC(C)NCC(O)c1cccc(NS(=O)(=O)C(F)(F)F)c1 (stereo unspecified)
11 |  | 4.45 | 3.03 | O=S(=O)(Nc1ccccc1)C(F)(F)F
